Source: US12564609B2, “Hematopoietic stem cell engraftment with a combination of agents” (The Board of Trustees of the Leland Stanford Junior …, priority 2020, dated 2026)

System: donor HSC engraftment
Experiment: Allogeneic (minor MHC-mismatched) transplantation, donor chimerism in peripheral blood
Format: in vivo, BALB.B mice
Method: A. Schematic of allogeneic transplantation protocol. BALB.B mice (H-2^b, Thy1.2, CD45.2) were recipients for B6 donors (H-2b, Thy1.1, CD45.1); ACK2 was injected 10 days prior transplantation, AZA was administered days −5 through −1 in dose 2.5 or 5 mg/kg/d, anti-CD4/CD8 were injected in dose 100 μg at days −2, −1 and at the day of transplant (day 0); recipients received 15×10^6 WBM cells or 5×10^4 LSK at d0; chimerism analysis was assessed by flow cytometry using CD45 marker to distinguish between donor and recipient total, myeloid (Gr1^+Mac1^+), B-cells (CD19^+CD3^−) and T-cells (CD19^−CD3^+). B. Multilineage donor-derived chimerism after conditioning with ACK2, AZA 2.5 mg/kg, AZA 5 mg/kg or their combination and transplantation of 15×10^6WBM cells. Chimerism levels from peripheral blood are shown at 4, 14 and 26 weeks post-HCT. Data represent mean±SD (n=4 per group). C. Multilineage donor-derived chimerism in peripheral blood at 4, 14 and 26 weeks following conditioning with single agent ACK2, single agent AZA 5 mg/kg/d or their combination and transplantation of 5×10^4 Lin^− Sca1^+c-Kit^+ cells (LSK). Data represent mean±SD (n=3-5 per group) between the donor and recipient.
Mice. […]
Bone marrow cell preparation and HSC isolation for transplantation experiments. […] Cells were filtered through 70-μm filter, lysed in ACK lysis buffer and counted on Invitrogen Countess. […]

Question: Which donor engraftment (AZA 5 mg/kg/d, anti-CD4/CD8, 15×10^6 allogeneic WBM cells) does the source give for `Nc1ncn([C@@H]2O[C@H](CO)[C@@H](O)[C@H]2O)c(=O)n1` [AZA, 5-Azacytidine] here?
Answer: successful donor engraftment was achieved

Question: And the “total donor chimerism over time” value (AZA alone group, 15×10^6 allogeneic WBM cells)?
Answer: noted to decrease
